Article PMC9573696, “Experimental Examination of Solubility and Lipophilicity as Pharmaceutically Relevant Points of Novel Bioactive Hybrid Compounds” (Molecules, 2022)
In brackets after ≈: the same amount, converted by molar mass.

Columns and labels:
[1] = tested on: C. parapsilosis ATCC 22019; assay: In vitro antifungal activity, microbroth dilution (MIC); format: cell-based
Protocol: (§1) The in vitro antifungal screening results of synthesized compounds was evaluated against three fungal strains: C. parapsilosis ATCC 22019, C. utilis 84, and C. glabrata 61L are summarized in Table 1.
(§2) The in vitro antifungal activity of the target compounds was measured by means of the minimal inhibitory concentrations (MIC) with fluconazole as the control drug. Procedure was carried out by the microbroth dilution method in 96-well plates according to the recommendations of the Clinical and Laboratory Standards Institute. The detailed information was reported previously. The investigated pathogenic species included C. parapsilosis ATCC 22019, C. utilis 84 and C. glabrata 61. The sensitivity was evaluated visually, after the incubation at 35 °C for 24 h and the value was compared with the growth density in the reference culture without the sample. Each test was conducted in triplicate.

C. glabrata 61L = assay: as above; format: cell-based
Protocol: as §1, §2

C. utilis 84 = assay: as above; format: cell-based; settings: Williopsis jadinii, 84, 24 h
Protocol: as §1, §2

[2] = Thermodynamic functions of transfer 1-octanol/buffer pH 7.4; format: physicochemical; settings: 298.15 K
Protocol: The temperature variation of the partition coefficient provides enthalpic and entropic contributions to the free energy of transfer. The thermodynamic transfer functions for hybrids I–III in the 1-octanol/buffer pH 7.4 system were calculated by Equations (12)–(16) and are summarized in Table 6. The standard Gibbs energy values for all the compounds are negative. Therefore, the transfer from the aqueous medium to the organic phase within the studied temperature range is thermodynamically favourable and spontaneous. The standard transfer enthalpies of all the studied compounds are positive, which means the process is endothermic. Energy is consumed during the transfer to overcome the hydrophobic effects in water (destruction of the molecule solvate shell structure), destruction of the solvent–solute interactions in the aqueous medium and creation of a cavity in the organic phase where the solute molecules can enter.
The standard change in Gibbs free energy of transfer (∆trG^o) from the buffer to the organic phase was calculated by Equation (14):∆trG^o = −RTlnP*o/b(14)
The standard change entropy of transfer (∆trS^o) is determined as follows:∆trS^o = (∆trH^o − ∆trG^o)/T(15)

[3] = Partition in system 1-octanol/buffer pH 7.4, shake-flask method; format: physicochemical; settings: for logP at 2 days / logD at 2 days: pH 7.4, 1-octanol/buffer pH 7.4; for logP at 2 days: from concentrations in mole fraction
Protocol: The partition coefficients of the new hybrid compounds in the model system 1-octanol/buffer pH 7.4 as a lipophilicity surrogate were determined experimentally. […] It is the lipophilic properties that allow the hybrids to move from the water phase to the less hydrophilic octanol phase, where the solute–solvent intermolecular interactions are more favourable. According to the results shown in Table 5, the order of changes in the partition coefficients logPo/b at T = 298.15 K, depending on the substituent nature, is expressed as the inequality: Cl- (1.65) < F- (2.40) < CH3- (2.50). Compounds I and II are the most lipophilic in the series of the studied substances, whereas the introduction of a chlorine atom considerably lowers the partition coefficient (~0.8 log units). This fact agrees with the common concept that lipophilic groups are usually hydrocarbon or fluorine-containing radicals. […] For drugs with such partition coefficients, there is a good balance between the solubility and permeability through passive diffusion and minimum metabolism due to the low binding capacity with enzymes.
The octanol/buffer pH 7.4 partition coefficient logPO/B is measured in a static mode using the shake-flask method. The procedure has been presented as standard in the Organization for Economic Cooperation and Development (OECD) guidelines for testing chemicals. The equipment described above was also used for the determination of the 1-octanol/water partition coefficients. […] The correctness of the obtained value of each compound was verified by checking the mass balance of the starting amount of the compound and the total amount of the compound partitioned between the two phases.
To aim evaluated transfer (partition) thermodynamic functions, the 1-octanol/buffer partition coefficients P^* o/b as the ratio of equilibrium concentrations in the organic (xo) and aqueous phases (xb) expressed in mole fractions were calculated: P* o/b = xo/xb(12)

[4] = Apparent thermodynamic functions of dissolution (van't Hoff); format: physicochemical; settings: Thm = 302.98 K
Text: The dissolution of the new hybrids was characterized based on apparent thermodynamic parameters obtained from temperature dependences of solubility of the studied compounds in the selected solvents (Figure 6). […] The van’t Hoff enthalpy of dissolution can be expressed as the inclination of a tangent to a solubility curve plotted as lnx vs. (1/T − 1/Thm) by Equation (6): (6) ΔHsolo=−R(∂lnx/∂(1/T−1/Thm))=−R⋅slope where R = 8.314 J⋅K^−1·mol^−1 is the universal gas constant. Thm = 302.98 K denotes the mean harmonic temperature, which was calculated by Equation (7):(7) Thm=n/∑i=1n1/Ti where n represented the number of experimental temperatures. The apparent standard Gibbs energy was evaluated by Equation (8):(8) ΔGsolo=−RThm×intersept
The apparent standard solution entropies were obtained from the well-known relationship:(9) ΔSsolo=ΔHsolo−ΔGsolo/Thm
The calculated apparent thermodynamic solubility functions of dissolution (Gibbs energy, enthalpy, and entropy) at standard temperature 298.15 K for hybrid compounds were collected in Table 4.

[5] = 1-octanol/buffer pH 7.4, 293.15 K
[6] = 1-octanol/buffer pH 7.4, 298.15 K
[7] = 1-octanol/buffer pH 7.4, 303.15 K
[8] = 1-octanol/buffer pH 7.4, 308.15 K
[9] = 1-octanol/buffer pH 7.4, 313.15 K

For `Cc1ccc(-n2c(=S)sc3c(=O)n(CCCN4CCN(CC(O)(Cn5cncn5)c5ccc(F)cc5F)CC4)cnc32)cc1` (stereo not drawn) [I, 6-[3-[4-[2-(2,4-difluorophenyl)-2-hydroxy-3-(1H-1,2,4-triazol-1-yl)propyl]-1-piperazinyl]propyl]-2,3-dihydro-3-(4-methylphenyl)-2-thioxo-thiazolo[4,5-d]pyrimidin-7(6H)-one], the advantage over fluconazole ([1]; C. parapsilosis ATCC 22019, MIC ratio) was 4 fold, the MIC ([1]; Lodderomyces parapsilosis, ATCC22019, 24 h) was 0.5 µg/mL (≈ 0.783 µM) and the “MIC relative to the reference value (fluconazole)” value (C. glabrata 61L; C. glabrata 61L) was “four times less”. For the same compound, the MIC (C. glabrata 61L; Nakaseomyces glabratus, 61L, 24 h) was 2 µg/mL (≈ 3.13 µM), the MIC (C. utilis 84) was 4 µg/mL (≈ 6.26 µM) and the “T∆trS^o” value [2] was 9.08 ± 0.22 kcal/mol. For the same compound, the “∆trG^o” value [2] was -4.68 ± 0.12 kcal/mol, the “∆trH^o” value [2] was 4.37 ± 0.072 kcal/mol and the “∆trS^o” value [2] was 127.4 ± 4.7 J·mol^−1·K^−1. For the same compound, the “sb × 10^6 (concentration in buffer)” value [3, 5] was 10.2 mol∙L^−1 (printed as sb × 10^6, the “so × 10^3 (concentration in 1-octanol)” value [3, 5] was 2.88 mol∙L^−1 (printed as so × 10^3 and the “xb × 10^7 (mole fraction in buffer)” value [3, 5] was 1.82 mole fraction (printed as xb ×. The “xo × 10^4 (mole fraction in 1-octanol)” value [3, 5] was 4.54 mole fraction (printed as xo ×, the “sb × 10^6 (concentration in buffer)” value [3, 6] was 9.11 mol∙L^−1 (printed as sb × 10^6 and the “so × 10^3 (concentration in 1-octanol)” value [3, 6] was 2.88 mol∙L^−1 (printed as so × 10^3. For the same compound, the “xb × 10^7 (mole fraction in buffer)” value [3, 6] was 1.63 mole fraction (printed as xb ×, the “xo × 10^4 (mole fraction in 1-octanol)” value [3, 6] was 4.57 mole fraction (printed as xo × and the “sb × 10^6 (concentration in buffer)” value [3, 7] was 7.95 mol∙L^−1 (printed as sb × 10^6. The “so × 10^3 (concentration in 1-octanol)” value [3, 7] was 2.88 mol∙L^−1 (printed as so × 10^3, the “xb × 10^7 (mole fraction in buffer)” value [3, 7] was 1.43 mole fraction (printed as xb × and the “xo × 10^4 (mole fraction in 1-octanol)” value [3, 7] was 4.59 mole fraction (printed as xo ×. The “sb × 10^6 (concentration in buffer)” value [3, 8] was 7.16 mol∙L^−1 (printed as sb × 10^6, the “so × 10^3 (concentration in 1-octanol)” value [3, 8] was 2.88 mol∙L^−1 (printed as so × 10^3 and the “xb × 10^7 (mole fraction in buffer)” value [3, 8] was 1.29 mole fraction (printed as xb ×. For the same compound, the “xo × 10^4 (mole fraction in 1-octanol)” value [3, 8] was 4.61 mole fraction (printed as xo ×, the logPo/b ([3]; 1-octanol/buffer pH 7.4, 308.15 K, from concentrations in mol∙L^−1) was 2.60 and the “sb × 10^6 (concentration in buffer)” value [3, 9] was 6.38 mol∙L^−1 (printed as sb × 10^6. For the same compound, the “so × 10^3 (concentration in 1-octanol)” value [3, 9] was 2.88 mol∙L^−1 (printed as so × 10^3, the “xb × 10^7 (mole fraction in buffer)” value [3, 9] was 1.15 mole fraction (printed as xb × and the “xo × 10^4 (mole fraction in 1-octanol)” value [3, 9] was 4.63 mole fraction (printed as xo ×. It also gave a logP at 2 days ([3]; 293.15 K) of 3.39, a logD at 2 days ([3]; 293.15 K, from concentrations in mol∙L^−1) of 2.45 and a logP at 2 days ([3]; 298.15 K) of 3.44. The logD at 2 days ([3]; 298.15 K, from concentrations in mol∙L^−1) was 2.5, the logP at 2 days ([3]; 303.15 K) was 3.5 and the logD at 2 days ([3]; 303.15 K, from concentrations in mol∙L^−1) was 2.56. The logP at 2 days ([3]; 308.15 K) was 3.55, the logP at 2 days ([3]; 313.15 K) was 3.6 and the logD at 2 days ([3]; 313.15 K, from concentrations in mol∙L^−1) was 2.65. The TΔSsolo ([4]; 1-Octanol) was -1.48 kcal/mol, the ΔGsolo ([4]; 1-Octanol) was 4.02 ± 0.048 kcal/mol and the ΔHsolo ([4]; 1-Octanol) was 2.53 ± 0.048 kcal/mol. For the same compound, the ΔSsolo ([4]; 1-Octanol) was −20.8 ± 1.1 J·mol^−1·K^−1, the TΔSsolo ([4]; Buffer pH 2.0) was -3.23 kcal/mol and the ΔGsolo ([4]; Buffer pH 2.0) was 6.07 ± 0.12 kcal/mol. The ΔHsolo ([4]; Buffer pH 2.0) was 2.84 ± 0.024 kcal/mol, the ΔSsolo ([4]; Buffer pH 2.0) was −45.2 ± 2.4 J·mol^−1·K^−1 and the TΔSsolo ([4]; Buffer pH 7.4) was -4.54 kcal/mol. The ΔGsolo ([4]; Buffer pH 7.4) was 7.7 ± 0.14 kcal/mol, the ΔHsolo ([4]; Buffer pH 7.4) was 3.15 ± 0.024 kcal/mol and the ΔSsolo ([4]; Buffer pH 7.4) was −63.6 ± 4.1 J·mol^−1·K^−1.
